This is an account of results in US5994342A, “3-(substituted methyl)-4-oxa-1-azabicyclo[3.2.0]heptan-7-one derivatives useful as antitumor agents” (priority 1994, dated 1999).

For one data set, the system named is KB cells. Put plainly: In vitro KB cell cytotoxicity assay (crystal violet). To be noted: Homo sapiens, 72 h, 3 days culture, read-out: KB Cell Cytotoxicity TD50. Format: cell-based. An outline of the steps:
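Cells seeded at 3×10^4 cells/ml in Eagle's MEM with 10% calf serum, cultured one day, then exposed to compound for three days at 37° C, 5% CO2. Glutaraldehyde-fixed cells stained with 0.05% crystal violet, eluted and read at OD540; TD50 from linear regression of log-logit plot of growth inhibition.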

A further data set deals with L-1210 (S) cells. The data set is described as follows: In vitro L1210 cell cytotoxicity (microculture tetrazolium assay), sensitive line. It counts as cell-based. As to conditions: Mus musculus, L1210, 72 h, read-out: Cell Toxicity L-1210 (S) (TD50). Here is the method:
(§1) In Vitro L1210 and P388 Cell Cytotoxicity Assay
(§2) Cells were counted using neubauer hemocytometer and seed in 96 well plates at 100 μl of 0.5×10^4 cells per ml. […] Control wells were identical except that the test compound was absent. These were cultured for three days. Results were assayed using the microculture tetrazolium assay briefly. 50 μl of MTT formazoan working solution (1:5 v/v in culture medium) was added to each well and cultures were incubated at 37° C. for 4 hrs. Culture plates were centrifuged at low speed for 5 minutes. All but 10-20 μl of culture medium supernatant was removed by slow aspiration and […] and read at OD540 on a multiscan spectrophotometer. Inhibition value of cell growth was calculated based on optical density using the following equation; [formula]
(§3) TD50 values were calculated from linear regression ines of the log-logit plot.

The subject of the next data set is P388 (R) cells. The data set is described as follows: In vitro P388 cell cytotoxicity (microculture tetrazolium assay), resistant line. Format: cell-based. As to conditions: Mus musculus, read-out: Cell Toxicity P388 (R) (TD50). Here is the method: as §1, §2, §3
Another data set has as its system P388 (S) cells. Put plainly: In vitro P388 cell cytotoxicity (microculture tetrazolium assay), sensitive line. Format: cell-based. To be noted: Mus musculus, 72 h, read-out: Cell Toxicity P388 (S) (TD50). On the procedure:
as §1, §2, §3

A further data set deals with L-1210 (R) cells. Put plainly: In vitro L1210 cell cytotoxicity (microculture tetrazolium assay), resistant line. Format: cell-based. As to conditions: Mus musculus, L1210, 72 h, read-out: Cell Toxicity L-1210 (R) (TD50). Here is the method: as §1, §2, §3
Another data set deals with Sarcoma 180. Put plainly: In vivo antitumor activity against Sarcoma 180. Also on record: species or system male ICR mice. To be noted: i.p., days 1, 5 and 9. The method, boiled down: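 Male ICR mice (6 weeks) inoculated s.c. with 5×10^6 Sarcoma 180 cells on day 0, dosed on days 1, 5 and 9 (6–7 per group). Tumours weighed on day 12; % inhibition from mean tumour weight of treated versus control group.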

For the next data set, the system named is antifungal activity. As to conditions: reported by Brown and Evans; cited from earlier work.
The next data set is described as follows: Chemical stability. Format: physicochemical.
For data set [1], the system named is antitumor activity. The data set is described as follows: Antitumor activity of clavam 1 in vitro. It counts as cell-based.
In data set [2] the test system is antitumor activity. The data set is described as follows: Antitumor activity of clavam 1 in vivo.
The mark [3] stands for this setting: L-1210 sensitive, 3 days culture.
Setting [4] is: 72 h, P388 resistant, 3 days culture.
Where [5] appears, read: L-1210 resistant, 3 days culture.

Values after ≈ are worked out from the molar mass of the structure shown. Where two headings read alike, the source gives them in different places.

With `CC(=O)NC[C@@H]1CN2C(=O)C[C@H]2O1` (racemic) [Example 1, (3RS,5RS)-3-(N-Acetylaminomethyl)-4-oxa-1-azabicyclo[3.2.0]heptan-7-one], the IC50 in the data set with KB cells was 0.263 µg/mL (≈ 1.43 µM); with L-1210 (S) cells (setting [3]), 0.103 µg/mL (≈ 0.559 µM); in the data set on P388 (R) cells (setting [4]), 0.074 µg/mL (≈ 0.402 µM); in the data set on P388 (S) cells (P388 sensitive, 3 days culture), 0.103 µg/mL (≈ 0.559 µM); in the data set on L-1210 (R) cells (setting [5]) it was 0.104 µg/mL (≈ 0.565 µM). Moreover, the “Mortality in 12 days” value in the data set with Sarcoma 180 (3.1 mg/kg/day), in the data set with Sarcoma 180 (6.25 mg/kg/day) and in the data set with Sarcoma 180 (12.5 mg/kg/day) was 0/6 each time. Further, in the data set on Sarcoma 180 (Mus musculus, Sarcoma-180, ip, 288 h, 3.1 mg/kg/day, tumor s.c., tumor weight day 12, read-out: % Inhibition of tumor growth), the inhibition in vivo at 3.1 mg/kg was 33.9%. In addition, the inhibition in vivo at 6.25 mg/kg in the data set on Sarcoma 180 (Mus musculus, Sarcoma-180, ip, 288 h, 6.25 mg/kg/day, tumor s.c., tumor weight day 12, read-out: % Inhibition of tumor growth) was 49.3%. In the data set on Sarcoma 180 (Mus musculus, Sarcoma-180, ip, 288 h, 12.5 mg/kg/day, tumor s.c., tumor weight day 12, read-out: % Inhibition of tumor growth), the inhibition in vivo at 12.5 mg/kg was found to be 71.4%.

As to `COc1cccc2c1C(=O)c1c(O)c3c(c(O)c1C2=O)C[C@@](O)(C(=O)CO)C[C@@H]3O[C@H]1C[C@H](N)[C@H](O)[C@H](C)O1` [Adriamycin], the IC50 in the data set with L-1210 (S) cells amounted to 0.004 µg/mL (≈ 0.00736 µM); in the data set on P388 (R) cells (P388, 72 h), 0.575 µg/mL (≈ 1.06 µM); in the data set on P388 (S) cells, 0.003 µg/mL (≈ 0.00552 µM); with L-1210 (R) cells, 0.36 µg/mL (≈ 0.662 µM).

As to `O=C(NCCCC[C@H](NC(=O)OCc1ccccc1)C(=O)OCC1CN2C(=O)CC2O1)OCc1ccccc1` (stereo partly drawn) [Example 77A, (3RS,5SR)-3-(L-2,6-N-Dibenzyloxycarbonylaminohexanoyl)oxymethyl-4-oxa-1-azabicyclo[3.2.0]heptan-7-one], the IC50 with KB cells was determined as 1.18 µg/mL (≈ 2.19 µM). Moreover, the entries for the “Mortality in 12 days” value in the data set on Sarcoma 180 (50 mg/kg/day) and in the data set with Sarcoma 180 (100 mg/kg/day) were 0/6 and 2/6, respectively. In addition, the inhibition in vivo at 50 mg/kg in the data set with Sarcoma 180 (Mus musculus, Sarcoma-180, ip, 288 h, 50 mg/kg/day, tumor s.c., tumor weight day 12, read-out: % Inhibition of tumor growth) was determined as 39.1%. Moreover, the inhibition in vivo at 100 mg/kg in the data set on Sarcoma 180 (Mus musculus, Sarcoma-180, ip, 288 h, 100 mg/kg/day, tumor s.c., tumor weight day 12, read-out: % Inhibition of tumor growth) worked out at 67.3%.

For `CC(C)C(N)C(=O)NC(C(=O)O)C(O)C1CN2C(=O)CC2O1` (stereo not shown) [Example G0069A], the IC50 stood at 2.17 µg/mL (≈ 6.88 µM) with L-1210 (S) cells (setting [3]); 0.751 µg/mL (≈ 2.38 µM) with P388 (R) cells (setting [4]); 1.02 µg/mL (≈ 3.23 µM) with P388 (S) cells (P388 sensitive, 3 days culture); 1.87 µg/mL (≈ 5.93 µM) in the data set with L-1210 (R) cells (setting [5]).

For the molecule `CC[C@]1(O)C[C@H]2CN(CCc3c([nH]c4ccccc34)[C@@](C(=O)OC)(c3cc4c(cc3OC)N(C=O)[C@H]3[C@@](O)(C(=O)OC)[C@H](OC(C)=O)[C@]5(CC)C=CCN6CC[C@]43[C@@H]65)C2)C1` [Vincristine], the IC50 was 0.002 µg/mL (≈ 0.00242 µM) in the data set on L-1210 (S) cells; 0.279 µg/mL (≈ 0.338 µM) with P388 (R) cells (P388, 72 h); 0.2 µg/mL (≈ 0.242 µM) in the data set with L-1210 (R) cells.

Regarding `O=C1C[C@@H]2O[C@@H](CO)CN12` [clavam 1, (3R,5S)-3-hydroxymethyl-4-oxa-1-azabicyclo[3.2.0]heptan-7-one], the antifungal activity result in the data set on antifungal activity is “exhibit antifungal activity”. For the same molecule, the chemical stability entry in the data set “Chemical stability” was “chemically unstable”. Moreover, the “antitumor activity in vitro” value in the data set with antitumor activity [1] was “excellent antitumor activity”. For the same molecule, in the data set on antitumor activity [2], the “antitumor activity in vivo” value is listed as “excellent antitumor activity”.
